Reference: patent US20020026051A1, “Dithiepino [6,5-b]pyridines, and related compositions and methods” (priority 1999, published 2002)
pIC50: −log10 of the molar value.

Biological target: T1, calcium channel (Oryctolagus cuniculus, UniProt P15381)
T1 construct: from tissue; host or cells: rabbit heart membrane preparation
Assay: Assay for Inhibition of Nitrendipine Binding (3H-nitrendipine, heart membranes)
Details: 3H-nitrendipine displacement, rabbit heart membranes
Description: Female, New Zealand white rabbits (1-2 kg) are sacrificed by cervical dislocation, and the heart is immediately removed, cleaned and chopped into small pieces. The tissue is homogenized in 5× times volume of 0.05M Hepes buffer, pH 7.4. The homogenate is centrifuged at 4000 g for 10 minutes, and the supernatant is re-centrifuged at 42,000×g for 90 minutes. The resulting membrane pellet is resuspended (0.7 ml/g weight) in 0.05M Hepes, pH 7.4 and stored at […] until used. Each tube of the binding assay contains ^3H-nitrendipine (0.05-0.50 nM), buffer, membranes (0.10 ml), and test compound in a total volume of 1.0 ml. After 90 minutes at 4° C., the bound nitrendipine is separated from the unbound by filtration on Whatman GF/C filters. After rinsing, the filters are dried and counted in a liquid scintillation counter.
Non-specific binding of ^3H-nitrendipine (that amount bound in the presence of excess unlabelled nitrendipine) is subtracted from the total bound to obtain specifically bound radiolabeled nitrendipine. The amount of specifically bound nitrendipine in the presence of a test compound is compared to that amount bound in the absence of a compound. A percent displacement (or inhibition) can then be calculated.

T1 sequence (P15381 whole entry, other chains not shown): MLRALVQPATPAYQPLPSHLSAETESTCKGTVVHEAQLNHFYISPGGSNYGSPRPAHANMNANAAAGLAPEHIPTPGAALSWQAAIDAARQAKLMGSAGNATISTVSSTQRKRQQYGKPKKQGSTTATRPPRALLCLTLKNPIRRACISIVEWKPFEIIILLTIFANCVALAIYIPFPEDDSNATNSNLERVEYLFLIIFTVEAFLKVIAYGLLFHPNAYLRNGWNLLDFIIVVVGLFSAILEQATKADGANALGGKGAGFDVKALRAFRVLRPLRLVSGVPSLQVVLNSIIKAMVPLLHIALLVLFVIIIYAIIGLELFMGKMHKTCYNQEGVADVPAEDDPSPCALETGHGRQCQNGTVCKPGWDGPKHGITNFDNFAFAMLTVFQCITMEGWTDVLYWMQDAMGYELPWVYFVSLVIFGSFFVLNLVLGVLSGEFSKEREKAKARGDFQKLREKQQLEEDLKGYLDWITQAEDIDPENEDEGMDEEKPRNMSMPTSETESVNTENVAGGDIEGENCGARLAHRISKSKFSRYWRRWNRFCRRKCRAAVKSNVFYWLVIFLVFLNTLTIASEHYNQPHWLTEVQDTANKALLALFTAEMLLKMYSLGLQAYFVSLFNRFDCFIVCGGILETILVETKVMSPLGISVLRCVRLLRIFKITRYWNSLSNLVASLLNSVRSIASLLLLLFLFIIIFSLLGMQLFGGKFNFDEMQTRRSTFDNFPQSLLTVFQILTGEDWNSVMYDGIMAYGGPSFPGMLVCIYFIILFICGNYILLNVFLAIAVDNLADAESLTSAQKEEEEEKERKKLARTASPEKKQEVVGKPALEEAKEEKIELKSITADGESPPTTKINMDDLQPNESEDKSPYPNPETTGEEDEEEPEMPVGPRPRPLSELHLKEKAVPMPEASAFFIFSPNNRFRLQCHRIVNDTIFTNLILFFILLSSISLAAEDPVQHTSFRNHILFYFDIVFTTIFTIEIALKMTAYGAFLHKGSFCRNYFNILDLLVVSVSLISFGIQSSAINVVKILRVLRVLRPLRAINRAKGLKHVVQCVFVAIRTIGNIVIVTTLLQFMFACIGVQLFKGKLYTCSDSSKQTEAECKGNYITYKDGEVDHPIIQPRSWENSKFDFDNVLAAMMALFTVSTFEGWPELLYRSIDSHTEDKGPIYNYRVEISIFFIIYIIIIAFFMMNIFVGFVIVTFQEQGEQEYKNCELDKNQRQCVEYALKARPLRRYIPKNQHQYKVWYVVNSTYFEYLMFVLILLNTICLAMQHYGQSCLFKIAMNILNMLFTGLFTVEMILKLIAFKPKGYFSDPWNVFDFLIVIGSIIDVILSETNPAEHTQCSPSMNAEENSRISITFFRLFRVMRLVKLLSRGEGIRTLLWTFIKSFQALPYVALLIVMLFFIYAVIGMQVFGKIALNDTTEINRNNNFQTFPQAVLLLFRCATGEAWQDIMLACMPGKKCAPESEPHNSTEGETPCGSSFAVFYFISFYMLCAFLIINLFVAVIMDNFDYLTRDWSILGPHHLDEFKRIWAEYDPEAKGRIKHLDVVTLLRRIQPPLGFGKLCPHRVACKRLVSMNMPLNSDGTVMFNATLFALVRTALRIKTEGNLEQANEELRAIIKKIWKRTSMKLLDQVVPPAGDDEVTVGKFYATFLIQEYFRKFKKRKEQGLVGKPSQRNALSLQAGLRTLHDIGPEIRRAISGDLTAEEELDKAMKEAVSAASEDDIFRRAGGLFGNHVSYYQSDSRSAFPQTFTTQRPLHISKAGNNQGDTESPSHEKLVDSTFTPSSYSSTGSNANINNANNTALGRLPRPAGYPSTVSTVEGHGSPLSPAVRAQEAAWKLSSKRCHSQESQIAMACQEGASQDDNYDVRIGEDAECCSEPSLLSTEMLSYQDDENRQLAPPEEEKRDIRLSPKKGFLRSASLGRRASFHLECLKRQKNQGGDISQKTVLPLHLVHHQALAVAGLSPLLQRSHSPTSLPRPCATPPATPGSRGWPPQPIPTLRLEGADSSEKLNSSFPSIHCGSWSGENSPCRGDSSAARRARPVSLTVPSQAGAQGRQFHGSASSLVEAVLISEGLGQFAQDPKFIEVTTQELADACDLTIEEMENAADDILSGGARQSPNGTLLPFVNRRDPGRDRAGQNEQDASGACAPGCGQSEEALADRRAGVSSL
T1 sequence (P13806 27-960 partner limits assumed, other chains not shown): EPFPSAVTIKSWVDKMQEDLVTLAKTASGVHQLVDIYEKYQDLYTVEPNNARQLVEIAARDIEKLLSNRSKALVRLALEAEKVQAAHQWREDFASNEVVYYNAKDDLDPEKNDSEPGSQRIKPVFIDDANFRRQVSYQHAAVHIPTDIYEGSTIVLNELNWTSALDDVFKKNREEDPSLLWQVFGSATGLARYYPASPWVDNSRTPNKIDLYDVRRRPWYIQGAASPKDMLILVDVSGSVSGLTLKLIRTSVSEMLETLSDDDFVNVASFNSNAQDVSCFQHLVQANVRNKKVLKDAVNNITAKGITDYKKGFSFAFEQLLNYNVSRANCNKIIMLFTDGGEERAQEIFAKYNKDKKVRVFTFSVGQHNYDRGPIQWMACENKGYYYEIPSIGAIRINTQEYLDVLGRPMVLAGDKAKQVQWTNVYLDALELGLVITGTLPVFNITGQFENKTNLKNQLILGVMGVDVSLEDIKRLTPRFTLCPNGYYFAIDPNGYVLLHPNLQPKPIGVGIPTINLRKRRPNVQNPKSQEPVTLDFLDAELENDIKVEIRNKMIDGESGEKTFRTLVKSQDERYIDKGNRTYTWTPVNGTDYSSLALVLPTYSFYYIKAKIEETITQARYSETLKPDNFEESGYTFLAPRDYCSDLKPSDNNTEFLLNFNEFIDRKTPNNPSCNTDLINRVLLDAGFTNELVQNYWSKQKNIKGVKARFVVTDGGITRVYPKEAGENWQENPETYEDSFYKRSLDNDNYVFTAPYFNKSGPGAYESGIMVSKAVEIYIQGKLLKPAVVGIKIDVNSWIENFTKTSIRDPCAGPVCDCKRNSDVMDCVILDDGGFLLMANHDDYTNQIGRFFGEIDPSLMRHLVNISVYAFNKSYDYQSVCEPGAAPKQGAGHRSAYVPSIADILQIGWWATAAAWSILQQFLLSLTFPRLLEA
T1 sequence (P13806 961-1106 partner limits assumed, other chains not shown): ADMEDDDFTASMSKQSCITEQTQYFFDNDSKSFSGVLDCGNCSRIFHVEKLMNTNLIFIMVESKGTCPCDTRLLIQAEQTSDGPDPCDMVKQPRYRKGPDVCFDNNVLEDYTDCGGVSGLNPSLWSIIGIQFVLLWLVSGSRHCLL

| SMILES | pIC50 (Tables 1-5) | pIC50 (Tables 6-7) |
| --- | --- | --- |
| COC(=O)C1=C(C)NC2=C(C1c1ccccc1F)S(=O)(=O)CCS(=O)(=O)C2 (stereo not shown) [Compound 16, 5H-1,4-Dithiepino[6,5-b]pyridine-8-carboxylic acid, 9-(2-fluorophenyl)-2,3,6,9-tetrahydro-7-methyl-methyl ester 1,1,4,4-tetraoxide] | 6.58 |  |
| COC(=O)C1=C(C)NC2=C(C1c1cccc(F)c1F)S(=O)(=O)CCS(=O)(=O)C2 (stereo not shown) [Compound 18, 5H-1,4-Dithiepino[6,5-b]pyridine-8-carboxylic acid, 9-(2,3-difluorophenyl)-2,3,6,9-tetrahydro-7-methyl-methyl ester 1,1,4,4-tetraoxide] | 7.17 |  |
| CC1=C(C(=O)OCCN(C)Cc2ccccc2)C(c2c(F)cccc2C(F)(F)F)C2=C(CS(=O)(=O)CCS2(=O)=O)N1 (stereo not shown) [Compound 5, 5H-1,4-Dithiepino[6,5-b]pyridine-8-carboxylic acid, 9-[2-fluoro-6-(trifluoromethyl)phenyl]-2,3,6,9-tetrahydro-7-methyl-2-[methyl(phenylmethyl)amino]ethyl ester 1,1,4,4-tetraoxide] | 7.92 |  |
| CC1=C(C(=O)OCCN(C)Cc2ccccc2)C(c2cccc(C(F)(F)F)c2F)C2=C(CS(=O)(=O)CCS2(=O)=O)N1 (stereo not shown) [Compound 7, 5H-1,4-Dithiepino[6,5-b]pyridine-8-carboxylic acid, 9-[2-fluoro-3-(trifluoromethyl)phenyl]-2,3,6,9-tetrahydro-7-methyl-2-[methyl(phenylmethyl)amino]ethyl ester 1,1,4,4-tetraoxide] | 7.74 |  |
| CC1=C(C(=O)OCCN(C)Cc2ccccc2)C(c2cccc(C(F)(F)F)c2F)C2=C(CS(=O)(=O)CCCS2(=O)=O)N1 (stereo not shown) [Compound 28, 2H,6H-1,5-Dithiocino[3,2-b]pyridine-9-carboxylic acid, 10-[2-fluoro-3-(trifluoromethyl)phenyl]-3,4,7,10-tetrahydro-8-methyl-2-[methyl(phenylmethyl)amino]ethyl ester 1,1,5,5-tetraoxide] | 7.28 |  |
| CC1=C(C(=O)OCCN(C)Cc2ccccc2)C(c2cccc(C(F)(F)F)c2F)C2=C(CS(=O)(=O)CS2(=O)=O)N1 (stereo not shown) [Compound 31, 4H-1,3-Dithiino[5,4-b]pyridine-7-carboxylic acid, 8-[2-fluoro-3-(trifluoromethyl)phenyl]-5,8-dihydro-6-methyl-2-[methyl(phenylmethyl)amino]ethyl ester 1,1,3,3-tetraoxide] | 7.55 |  |
| CC1=C(C(=O)OCCN(C)Cc2ccccc2)C(c2cccc([N+](=O)[O-])c2)C2=C(CS(=O)(=O)CCS2(=O)=O)N1 (stereo not shown) [Compound 8, 5H-1,4-Dithiepino[6,5-b]pyridine-8-carboxylic acid, 2,3,6,9-tetrahydro-7-methyl-9-(3-nitrophenyl)-2-[methyl(phenylmethyl)amino]ethyl ester 1,1,4,4-tetraoxide] | 7.37 |  |
| CC1=C(C(=O)OCCN(C)Cc2ccccc2)C(c2ccccc2Cl)C2=C(CS(=O)(=O)CCCS2(=O)=O)N1 (stereo not shown) [Compound 29, 2H,6H-1,5-Dithiocino[3,2-b]pyridine-9-carboxylic acid, 10-(2-chlorophenyl)-3,4,7,10-tetrahydro-8-methyl-2-[methyl(phenylmethyl)amino]ethyl ester 1,1,5,5-tetraoxide] | 7.24 |  |
| CC1=C(C(=O)OCCN(C)Cc2ccccc2)C(c2cccc([N+](=O)[O-])c2)C2=C(CS(=O)(=O)CCCS2(=O)=O)N1 (stereo not shown) [Compound 25, 2H,6H-1,5-Dithiocino[3,2-b]pyridine-9-carboxylic acid, 3,4,7,10-tetrahydro-8-methyl-10-(3-nitrophenyl)-2-[methyl(phenylmethyl)amino]ethyl ester 1,1,5,5-tetraoxide] | 8.00 |  |
| CC1=C(C(=O)OCCN(C)Cc2cccs2)C(c2cc(F)c(F)c(F)c2)C2=C(CS(=O)(=O)CCS2(=O)=O)N1 (stereo not shown) [Compound 10, 5H-1,4-Dithiepino[6,5-b]pyridine-8-carboxylic acid, 2,3,6,9-tetrahydro-7-methyl-9-(3,4,5-trifluorophenyl)-2-[methyl(2-thienylmethyl)amino]ethyl ester 1,1,4,4-tetraoxide] | 7.62 |  |
| CC1=C(C(=O)OCc2oc(=O)oc2C)C(c2c(F)cccc2Cl)C2=C(CS(=O)(=O)CCS2(=O)=O)N1 (stereo not shown) [Compound 73] |  | 6.38 |
| C=C1CS(=O)(=O)C2=C(CS1(=O)=O)NC(C)=C(C(=O)OC)C2c1cccc(C(F)(F)F)c1F (stereo not shown) [Compound 20, 5H-1,4-Dithiepino[6,5-b]pyridine-8-carboxylic acid, 9-[2-fluoro-3-(trifluoromethyl)phenyl]-2,3,6,9-tetrahydro-7-methyl-3-methylene-methyl ester 1,1,4,4-tetraoxide] | 7.68 |  |

Next, values leading:

| pIC50 (Tables 1-5) | pIC50 (Tables 6-7) | SMILES |
| --- | --- | --- |
|  | 7.37 | CC1=C(C(=O)OCCCOC(=O)c2ccccc2)C(c2c(F)cccc2Cl)C2=C(CS(=O)(=O)CCS2(=O)=O)N1 (stereo not shown) [Compound 41, 7-methyl-9-[2-fluoro-6-chlorophenyl]-2,3,6,9-tetrahydro-1,1,4,4-tetraoxide 5H-1,4-Dithiepino[6,5-b]pyridine-8-carboxylic acid 3-benzoyloxypropyl ester] |
|  | 5.77 | CC1=C(C(=O)OCCC2CCOC2=O)C(c2c(F)cccc2Cl)C2=C(CS(=O)(=O)CCS2(=O)=O)N1 (stereo not shown) [Compound 85] |
|  | 7.89 | CCC(CC)C(=O)OCCOC(=O)C1=C(C)NC2=C(C1c1c(F)cccc1Cl)S(=O)(=O)CCS(=O)(=O)C2 (stereo not shown) [Compound 33] |
|  | 6.02 | CC1=C(C(=O)OCCOC(=O)CNC(=O)OC(C)(C)C)C(c2c(F)cccc2Cl)C2=C(CS(=O)(=O)CCS2(=O)=O)N1 (stereo not shown) [Compound 81] |
|  | 6.47 | CC(=O)OCCCOC(=O)C1=C(C)NC2=C(C1c1c(F)cccc1Cl)S(=O)(=O)CCS(=O)(=O)C2 (stereo not shown) [Compound 68] |
|  | 7.36 | CC1=C(C(=O)OCCOC(=O)C2CCc3ccccc3C2)C(c2c(F)cccc2Cl)C2=C(CS(=O)(=O)CCS2(=O)=O)N1 (stereo not shown) [Compound 42, 7-methyl-9-[2-fluoro-6-chlorophenyl]-2,3,6 9-tetrahydo-1,1,4,4-tetraoxide 5H-1,4-Dithiepino[6,5-b]pyridine-8-carboxlic acid 2-[1,2,3,4-tetrahydo-2-napthoyl]oxyethyl ester] |
|  | 6.76 | CC1=C(C(=O)OC2CCOC2=O)C(c2c(F)cccc2Cl)C2=C(CS(=O)(=O)CCS2(=O)=O)N1 (stereo not shown) [Compound 60] |
| 6.41 |  | CC1=C(C(=O)OCCN(C)Cc2ccccc2)C(c2c(O)cccc2Cl)C2=C(CS(=O)(=O)CCS2(=O)=O)N1 (stereo not shown) [Compound 4, 5H-1,4-Dithiepino[6,5-b]pyridine-8-carboxylic acid, 9-(2-chloro-6-hydroxyphenyl)-2,3,6,9-tetrahydro-7-methyl-2-[methyl(phenylmethyl)amino]ethyl ester 1,1,4,4-tetraoxide] |
|  | 6.55 | CC1=C(C(=O)OCC(=O)OCc2ccccc2)C(c2c(F)cccc2Cl)C2=C(CS(=O)(=O)CCS2(=O)=O)N1 (stereo not shown) [Compound 66] |
|  | 5.65 | CC1=C(C(=O)OCCNC(=O)c2ccccc2)C(c2c(F)cccc2Cl)C2=C(CS(=O)(=O)CCS2(=O)=O)N1 (stereo not shown) [Compound 87] |
|  | 7.26 | CC1=C(C(=O)OCCOC(=O)c2ccc(C#N)cc2)C(c2c(F)cccc2Cl)C2=C(CS(=O)(=O)CCS2(=O)=O)N1 (stereo not shown) [Compound 48] |
|  | 7.70 | CC1=C(C(=O)OCCOC(=O)CCC(C)C)C(c2c(F)cccc2Cl)C2=C(CS(=O)(=O)CCS2(=O)=O)N1 (stereo not shown) [Compound 36] |
|  | 5.32 | CC1=C(C(=O)OCCN)C(c2c(F)cccc2Cl)C2=C(CS(=O)(=O)CCS2(=O)=O)N1 (stereo not shown) [Compound 91] |
